Results on 7 molecules are retold here after publication PMC7038073, “Substituted Piperazines as Novel Potential Radioprotective Agents” (Molecules, 2020).

Molecules are shown by their SMILES. Counter-ions that a name gives are not always drawn.

A short description of data set [1]: WST-1 cytotoxicity test, HeLa. The data set is classed as cell-based. Particulars: human, HeLa cells, 48 h, WST-1, mean ± SD of three experiments, read-out: relative viability (%) compared to untreated control. On the procedure: (§1) In this study, the cytotoxic effects of nine new compounds (2, 3, 4, 5, 6, 7, 8, 9, 10) were tested on 10 human cell lines (nine cancer and one non-cancer cell line). The cell lines were treated with each compound at concentrations of 10 µM and 100 µM for 48 h. The proliferation capacity of the treated cells was determined by WST-1 test and compared against the proliferation rate of the untreated control cells (100%).
(§2) The cell lines Jurkat, MOLT-4, A2780, A549, HT-29, PANC-1, HeLa, MCF-7, SAOS-2, and MRC-5 (all purchased from Sigma Aldrich, Czech Republic) were included in this study. All cell lines were maintained according to the provider’s guidelines, and plated and treated in 96-well plates (500 to 30 × 10^3 cells per well). The tested compounds 2, 3, 4, 5, 6, 7, 8, 9, and 10 were dissolved in 0.1% DMSO and kept in 10 mM stock solutions. Before use, the stock solution was diluted in culture media at ratios of 1:100 and 1:1000. The studied cell lines were treated with the compounds 2, 3, 4, 5, 6, 7, 8, 9, and 10 at concentrations of 10 and 100 µM for 48 h. Control cells were tested in culture media with and without DMSO (0.1%). The cells were also treated with 1 µM doxorubicin as a cytotoxicity control.
(§3) The WST-1 (2-(4-iodophenyl)-3-(4-nitrophenyl)-5-(2,4-disulfophenyl)-2H-tetrazolium, monosodium salt) test (Roche, Mannheim, Germany) was used according to the manufacturer’s protocol to determine cell viability in all 10 cell lines 48 h after treatment with the tested compounds. The cells were analyzed in a Tecan Infinite M200 spectrometer (Tecan Group, Männedorf, Switzerland) at 440 nm.

In a further data set the test system is MOLT-4 cells. The data set is described as follows: Radioprotection in vitro, Annexin V/PI flow cytometry after irradiation. It counts as cell-based, human. Conditions: 60-min pre-treatment, 1 Gy; for viability at 100 µM: Homo sapiens, MOLT-4, light or radiation study, 24 h following irradiation, irradiated untreated 40%, non-irradiated control 92%, read-out: percentage of viable MOLT-4 cells (Annexin V and PI negative) after irradiation; for radioprotective effect in vitro (in words): 100 μM, MOLT-4. An excerpt:
Phosphatidylserine, a major component of the inner leaflet of the cytoplasmic membrane bilayers, is frequently used as an indicator of cell death. The externalization of this phospholipid can be detected through Annexin V, which binds to phosphatidylserine in the presence of calcium. Cell viability was quantified by Annexin V-Alexa Fluor® 488/propidium iodide (PI) staining and flow cytometry analysis to determine whether the tested compounds could prevent radiation-induced cell death in MOLT-4 cells. The percentage of viable cells was 92% for non-irradiated control (0.1% DMSO vehicle) and 40% for untreated irradiated cells (1 Gy) (Figure 2A).
Fresh 50 mM stock solutions of the compounds were prepared in DMSO (Sigma-Aldrich, St. Louis, MO, USA) before use in the study. For the radioprotection experiments, MOLT-4 cells were treated with 100 μM solutions of the novel compounds and irradiated after 60 min with a ^60Co γ-ray source (Chisotron Chirana, Prague, Czech Republic). The non-irradiated and irradiated control cells were treated with DMSO vehicle only (0.1%) and handled in parallel with the experimental cells. Non-irradiated control cells were handled in the same manner. Cell viability was determined by flow cytometry using an Alexa Fluor® 488 Annexin V/Dead Cell Apoptosis kit (Life Technologies, Grand Island, NY, USA) according to the manufacturer’s instructions. The Alexa Fluor® 488 Annexin V/Dead Cell Apoptosis kit employs the property of Alexa Fluor® 488 conjugated to Annexin V to bind to phosphatidylserine in the presence of Ca^2+, and the property of propidium iodide (PI) to enter cells with damaged cell membranes and bind to DNA. Measurement was performed using a CyAn (Beckman Coulter, Miami, FL, USA) flow cytometer. Listmode data was analyzed with the Kaluza Analysis v1.3 software (Beckman Coulter, Miami, FL, USA).

Data set [2] is described as follows: WST-1 cytotoxicity test, MCF-7. The data set is classed as cell-based. Particulars: human, MCF-7 cells, 48 h, WST-1, mean ± SD of three experiments, read-out: relative viability (%) compared to untreated control; for viability at 48 h, 10 µM: MCF-7, 10 µM; for viability at 48 h, 100 µM: MCF-7, 100 µM. On the procedure: as §1, §2, §3
For data set [3], the system named is 10 human cell lines (nine cancer and one non-cancer cell line). Nature of the data set: WST-1 cytotoxicity test, statements over all cell lines. The data set is classed as cell-based. Conditions: 100 µM, 48 h, studied cell lines. Here is the method:
as §1, §2, §3
For orientation: Tetrazolium assays rely on reduction of a dye to a coloured formazan, in cell work by metabolically active cells.

Data set [4] is described as follows: WST-1 cytotoxicity test, A549. Particulars: human, A549 cells, 48 h, WST-1, mean ± SD of three experiments, read-out: relative viability (%) compared to untreated control; for viability at 48 h, 10 µM: A549, 10 µM; for viability at 48 h, 100 µM: A549, 100 µM. It counts as cell-based. Here is the method:
as §1, §2, §3

A short description of data set [5]: WST-1 cytotoxicity test, A2780. The data set is classed as cell-based. Conditions: human, A2780 cells, 48 h, WST-1, mean ± SD of three experiments, read-out: relative viability (%) compared to untreated control; for viability at 48 h, 10 µM: A2780, 10 µM; for viability at 48 h, 100 µM: A2780, 100 µM. Here is the method:
as §1, §2, §3

With `Cc1cc(OCC(O)CN2CCN(CCO)CC2)ccc1Cl.Cl.Cl` (stereo not drawn) [Compound 4, 1-(4-chloro-3-methylphenoxy)-3-(4-(2-hydroxyethyl)piperazin-1-yl)propan-2-ol dihydrochloride], the viability at 48 h, 10 µM in data set [1] stood at 106 ± 2%; in data set [2], 105 ± 4%; in data set [4], 100 ± 4%; in data set [5] it was 98 ± 2%. Also, the viability at 48 h, 100 µM in data set [1] is 137 ± 5%; in data set [2] it was 90 ± 3%; in data set [4], 99%; in data set [5], 89 ± 1%. The viability at 100 µM in the data set on MOLT-4 cells amounted to 61%. In addition, the “cytotoxic effect (in words)” value in data set [3] is listed as “no significant cytotoxic effects”.
For the molecule `Cl.Cl.Cl.OCCN1CCN(CCCNc2ccccc2)CC1` [Compound 5, 2-(4-(3-(phenylamino)propyl)piperazin-1-yl)ethanol trihydrochloride], the viability at 48 h, 10 µM came out at 100 ± 4% in data set [1], 101 ± 6% in data set [2], 86 ± 7% in data set [4] and 93 ± 5% in data set [5]. Besides, the viability at 48 h, 100 µM in data set [1] amounted to 116 ± 10%; in data set [2], 106 ± 1%; in data set [4], 104 ± 8%; in data set [5], 105 ± 8%. In the data set with MOLT-4 cells, the “radioprotective effect in vitro (in words)” value is reported as “did not show statistically significant radioprotective effect”. Further, in the data set with MOLT-4 cells, the viability at 100 µM was 59%. Also, the “cytotoxic effect (in words)” value in data set [3] is listed as “no significant cytotoxic effects”.
Regarding `Cl.Cl.Cl.OCCN1CCN(CCCNc2cccc3ccccc23)CC1` [Compound 6, 2-(4-(3-(naphthalen-1-ylamino)propyl)piperazin-1-yl)ethanol trihydrochloride], the viability at 48 h, 10 µM in data set [1] was 108 ± 6%; in data set [2], 102 ± 8%; in data set [4], 103 ± 7%; in data set [5], 74 ± 3%. Further, the viability at 48 h, 100 µM in data set [1] came to 104 ± 7%; in data set [2], 94 ± 9%; in data set [4] it was 93 ± 3%; in data set [5], 95 ± 4%. Moreover, in the data set with MOLT-4 cells, the viability at 100 µM amounted to 69%. The “cytotoxic effect (in words)” value in data set [3] is on record as “no significant cytotoxic effects”.
`COc1ccc(NCCCN2CCN(CCO)CC2)cc1.Cl.Cl.Cl` [Compound 7, 2-(4-(3-((4-methoxyphenyl)amino)propyl)piperazin-1-yl)ethanol trihydrochloride]: the viability at 48 h, 10 µM in data set [1] amounted to 96 ± 8%; in data set [2] it was 105 ± 6%; in data set [4], 95 ± 5%; in data set [5] it was 94 ± 3%. Also, the viability at 48 h, 100 µM in data set [1] turned out to be 132 ± 3%; in data set [2], 104 ± 6%; in data set [4], 115%; in data set [5] it was 91 ± 2%. Further, the viability at 100 µM in the data set with MOLT-4 cells worked out at 64%. In addition, the “cytotoxic effect (in words)” value in data set [3] is “no significant cytotoxic effects”.
Take `OCCN1CCN(CC(O)CN2CCN(CCO)CC2)CC1` [Compound 8, 1.3-bis [4-(2-hydroxyethyl)piperazin-1-yl)propan-2-ol tetrahydrochloride]: the viability at 48 h, 10 µM in data set [1] was 103 ± 4%; in data set [2] it was 101 ± 5%; in data set [4], 97 ± 5%; in data set [5] it was 104 ± 4%. Also, the viability at 48 h, 100 µM was determined as 100 ± 18% in data set [1], 96 ± 7% in data set [2], 111 ± 11% in data set [4] and 76 ± 10% in data set [5]. The viability at 100 µM in the data set with MOLT-4 cells was 57%. Moreover, in data set [3], the “cytotoxic effect (in words)” value is “no significant cytotoxic effects”.
Take `Cl.Cl.OC(CNc1ccccc1)CNc1ccccc1` [Compound 9, 1,3-bis(phenylamino)propan-2-ol dihydrochloride]: the viability at 48 h, 10 µM in data set [1] was 99 ± 9%; in data set [2], 100 ± 4%; in data set [4], 107 ± 11%; in data set [5] it was 90 ± 3%. In addition, the viability at 48 h, 100 µM in data set [1] came out at 90 ± 14%; in data set [2], 98 ± 11%; in data set [4] it was 98 ± 13%; in data set [5], 64 ± 5%. Further, the “radioprotective effect in vitro (in words)” value with MOLT-4 cells is “no significant radioprotective effect”. The viability at 100 µM in the data set on MOLT-4 cells was found to be 34%. Also, the “cytotoxic effect (in words)” value in data set [3] is listed as “no significant cytotoxic effects”.
For `Cl.Cl.Cl.OCCN1CCN(CC(O)CNc2ccccc2)CC1` (stereo not drawn) [Compound 10, 1-(phenylamino]-3-[4-(2-hydroxyethyl)piperazin-1-yl)propan-2-ol trihydrochloride], the viability at 48 h, 10 µM in data set [1] came to 110 ± 7%; in data set [2], 98 ± 2%; in data set [4], 105 ± 9%; in data set [5], 103 ± 6%. The viability at 48 h, 100 µM in data set [1] is 121 ± 3%; in data set [2], 96 ± 6%; in data set [4], 105 ± 2%; in data set [5], 96 ± 2%. In addition, the viability at 100 µM in the data set on MOLT-4 cells is 51%. The “cytotoxic effect (in words)” value in data set [3] is given as “no significant cytotoxic effects”.
